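Following 48 hours of exposure in 96-well plates, responses at five concentrations were used to interpolate endpoints linearly. The concentration for 50% growth inhibition is given as GI50. TGI: concentration producing complete growth inhibition.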
Columns and labels:
Experiment in all cases: NCI tumour cell line growth inhibition, 48 h
SNB-78 CNS = test system: SNB-78 CNS
DLD-1 colon = test system: DLD-1 colon
DMS 114 small cell lung = test system: DMS 114 small cell lung
RXF-631 renal = test system: RXF-631 renal
DMS 273 small cell lung = test system: DMS 273 small cell lung
HOP-18 NSCLC = test system: HOP-18 NSCLC
XF 498 CNS = test system: XF 498 CNS
MDA-N = test system: MDA-N
BT-549 breast = test system: BT-549 breast

Compound | TGI (SNB-78 CNS) [µM] | TGI (DLD-1 colon) [µM] | TGI (DMS 114 small cell lung) [µM] | TGI (RXF-631 renal) [µM] | TGI (DMS 273 small cell lung) [µM] | TGI (HOP-18 NSCLC) [µM] | TGI (XF 498 CNS) [µM] | GI50 (SNB-78 CNS) [µM] | GI50 (DLD-1 colon) [µM] | GI50 (DMS 114 small cell lung) [µM] | TGI (MDA-N) [µM] | TGI (BT-549 breast) [µM]
CN(C)/C=N/c1nc2ncn(CCOC(=O)c3ccccc3)c2c(=O)[nH]1 | > 100 | > 100 | > 100 | > 100 | > 100 | > 100 |  |  |  |  |  | 
O=C1C(N2C(=O)c3ccccc3C2=O)CN1C(COCc1ccccc1)c1ccc(OCc2ccccc2)cc1 (stereo not given) | > 100 | > 100 | > 100 |  | > 100 |  | > 100 |  |  |  |  | 
COc1ccc(/C(C)=N/NC(N)=S)c(OC)c1 | > 100 | > 100 | > 100 | > 100 |  | > 100 | > 100 |  |  |  |  | 
Oc1cc2c(cc1O)-c1[nH]ncc1CC2 | > 100 | > 100 | 75.2 |  | > 100 | 61.8 | 86.7 |  |  |  |  | 
O=C([O-])c1ccccc1Nc1ccccc1[O-].[Ni+3].[OH3+].[OH3+].[OH3+] | > 100 | > 100 | > 100 |  |  |  |  | > 100 | > 100 | > 100 |  | 
COC(=O)C(Cc1nc2ccccc2[nH]c1=O)C(=O)C(=O)Nc1ccc(OC)cc1[N+](=O)[O-] (stereo not given) | > 100 |  |  |  |  |  | > 100 |  |  |  |  | 
Cc1nc2cc(N)c(Cl)cc2[nH]1 |  |  |  |  |  |  |  |  |  |  | > 100 | > 100
O=C(O)C1OC(Oc2cc(O)c3c(=O)cc(-c4ccc(O)cc4)oc3c2)C(O)C(O)C1O (stereo not given) | > 100 | > 100 | > 100 |  | > 100 |  | 83 |  |  |  |  | 
CC(O[Si](C)(C)C)C1C=CC(C)n2c(=O)n(-c3ccccc3)c(=O)n21 (stereo not given) | > 100 | > 100 | > 100 |  |  | > 100 |  |  |  |  |  | 
CC(C)CC(=O)NS(=O)(=O)c1ccccc1 | > 100 | > 100 | > 100 | > 100 |  | > 100 | > 100 |  |  |  |  | 
COC(=O)C1C2CCCN2OC1(C)CO (stereo not given) |  |  |  |  |  |  |  |  |  |  | > 100 | > 100
